{"source": "patent US20160279187A1", "about": "“CALPAIN INHIBITORS FOR IBD AND COLORECTAL CANCER TREATMENT” (UNIVERSITY OF HAWAII, priority 2013, published 2016)", "key": {"[1]": {"test_system": "calpain activity in the colon tissue", "assay": "DSS dose-response, calpain activity in colon tissue", "type": "in vivo, mice", "conditions": "2% DSS 4 days", "method": "Bone marrow derived macrophages (BMDM) were prepared as previously described by methods known to those skilled in the art. On day 5 of culture, 2×10^6 BMDM were seeded in 6-well plates and the following day were primed for 18 h with TNFα (20 ng/mL), followed by 1 h stimulation with E. faecalis (1 μg/mL; ATCC). Stimulation with E. faecalis was conducted in the presence of the zLLY-CH2F calpain-2 inhibitor (20 μg/mL) or DMSO as a control. Media was removed from treated BMDM, centrifuged at 300×g for 5 min and supernatent analyzed using the Cytometric Bead Array Mouse Inflammation Kit (BD Biosciences, San Jose, Calif.). Cytokine data were analyzed using Flowjo software (Ashland, Oreg.) and GraphPad Prism version 4.0 (GraphPad, La Jolla, Calif.). Cell pellets were lysed and analyzed for IκB and NFκB by Western blot as previously described (Miyazaki, T. et al. Journal of Atherosclerosis and Thrombosis 20, 228-237, 2013). […] Each day 4 wells were quantified using Celltiter MTS reagent (Promega) and the resulting signal was used to generate a proliferation curve. Calpain activity was measured using a Calpain activity assay kit (BioVision, Inc., Milpitas, Calif.) as previously described. Colons were harvested on day 4 and calpain activity measured. […]"}, "[2]": {"test_system": "AOM/DSS induced colitis/CAC", "assay": "AOM/DSS induced colitis/CAC model", "type": "in vivo, C57BL/6J mice", "conditions": "for CAC pathology (blinded 4-point histological score) / total tumor volume (in words): day 63, vs vehicle control", "method": "A mice colony generated from C57BL/6J mice (Jackson Laboratories) was maintained in the University of Hawaii vivarium. The mouse AOM/DSS induced colitis/CAC model was adapted from a previously described protocol (Fenouille, N. et al. J. Pathol. 227, 118-129, 2012). In brief, 8-10 wk old male mice were injected with AOM (A5486, Sigma) (12 mg/kg) on day 0 and were then treated with three 5 day cycles of 2% DSS (CAS#9011-18-1; MP Biomedicals, Santa Ana, Calif.) in drinking water alternated with regular water over 63 days. Mice in the intervention group were interperitonal injected 5 days per week with 0.75 mg/kg calpain-2 inhibitor (Calpain Inhibitor IV, zLLY-CH2F; Millipore EMD part number 208724) beginning on day 8 and then throughout the entire protocol. Control mice were injected with AOM on day 0 and received regular drinking water throughout the protocol. All animal protocols were approved by the University of Hawaii Institutional Animal Care and Use Committee.\nBone marrow derived macrophages (BMDM) were prepared as previously described by methods known to those skilled in the art. On day 5 of culture, 2×10^6 BMDM were seeded in 6-well plates and the following day were primed for 18 h with TNFα (20 ng/mL), followed by 1 h stimulation with E. faecalis (1 μg/mL; ATCC). Stimulation with E. faecalis was conducted in the presence of the zLLY-CH2F calpain-2 inhibitor (20 μg/mL) or DMSO as a control. Media was removed from treated BMDM, centrifuged at 300×g for 5 min and supernatent analyzed using the Cytometric Bead Array Mouse Inflammation Kit (BD Biosciences, San Jose, Calif.). Cytokine data were analyzed using Flowjo software (Ashland, Oreg.) and GraphPad Prism version 4.0 (GraphPad, La Jolla, Calif.). Cell pellets were lysed and analyzed for IκB and NFκB by Western blot as previously described (Miyazaki, T. et al. Journal of Atherosclerosis and Thrombosis 20, 228-237, 2013). In other experiments, mouse CT-26.WT and human HT-29 colon cancer cells were plated in 96-well plates at 10^3 cells/well with 20 μg/mL inhibitor or DMSO, followed by analyses for IκB and NFκB by Western blot as described above for BMDM. For proliferation assays, fresh media with 20 μg/mL inhibitor or DMSO were added every 2 d. Each day 4 wells were quantified using Celltiter MTS reagent (Promega) and the resulting signal was used to generate a proliferation curve. Calpain activity was measured using a Calpain activity assay kit (BioVision, Inc., Milpitas, Calif.) as previously described. Colons were harvested on day 4 and calpain activity measured. Enzyme-linked immunosorbant assay (ELISA) analyses of cecum hemoglobin has been previously described (Miyazaki, T. et al. Journal of Atherosclerosis and Thrombosis 20, 228-237, 2013).\nOn day 63, colons were dissected, cut longitudinally, and then were spread out on clear plastic. The colons were washed with PBS using transfer pipettes and images captured using an Infinity 2 microscope mounted camera (Lumenara, Madrid, Spain) in line with a Stemi 2000-C dissecting scope (Zeiss, Jena, Germany). Separate images were assembled into continuous colon images using Photoshop software (Adobe Systems Inc.). For histology, colon tissues were washed with PBS and fixed in 10% buffered formalin. Standard H&E staining of paraffin-embedded tissue samples was conducted as previously described (Leloup, L. & Wells, A., Expert Opinion on Therapeutic Targets 15, 309-323, 2011). Five H&E stained sections from each mouse were blindly scored for colitis pathology as previously described (Liu, T., Mendes, D. E. & Berkman, C. E. Int. J. Oncol. 44, 467-472, 2014). […]"}, "[3]": {"test_system": "IκB / NFκB in CT-26 WT cells", "assay": "IκB and nuclear NFκB western blot, CT-26.WT", "type": "cell-based, mouse", "conditions": "vs DMSO"}, "μ-calpain": {"target": "T1, μ-calpain (Homo sapiens, UniProt P07384)", "T1 sequence (P07384 1-714)": "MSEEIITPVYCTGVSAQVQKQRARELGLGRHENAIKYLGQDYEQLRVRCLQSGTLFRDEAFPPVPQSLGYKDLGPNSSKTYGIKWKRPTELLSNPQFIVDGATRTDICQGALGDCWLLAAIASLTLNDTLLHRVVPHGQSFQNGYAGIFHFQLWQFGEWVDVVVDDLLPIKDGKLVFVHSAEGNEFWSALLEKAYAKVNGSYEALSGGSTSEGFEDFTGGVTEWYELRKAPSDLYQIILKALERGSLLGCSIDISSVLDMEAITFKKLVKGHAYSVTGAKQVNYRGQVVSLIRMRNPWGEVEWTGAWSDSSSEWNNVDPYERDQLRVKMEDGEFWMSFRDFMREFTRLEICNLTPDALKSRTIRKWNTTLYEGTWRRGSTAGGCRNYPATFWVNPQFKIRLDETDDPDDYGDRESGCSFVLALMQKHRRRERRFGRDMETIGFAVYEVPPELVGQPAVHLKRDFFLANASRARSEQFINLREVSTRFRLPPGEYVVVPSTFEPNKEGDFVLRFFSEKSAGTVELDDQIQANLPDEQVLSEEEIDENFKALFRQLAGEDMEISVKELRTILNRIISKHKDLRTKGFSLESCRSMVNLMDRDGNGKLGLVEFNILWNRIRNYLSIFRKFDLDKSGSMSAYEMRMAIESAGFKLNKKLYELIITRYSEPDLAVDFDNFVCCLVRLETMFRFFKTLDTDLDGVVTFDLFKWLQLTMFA", "conditions": "off-target; cited from earlier work"}}, "note": "Where a SMILES comes first, the peptide text is derived from it. The star is where a group is joined. Cbz = O=C(OCc1ccccc1)*; CH2F = FC*", "data": [{"smiles": "CC(C)C[C@H](NC(=O)OCc1ccccc1)C(=O)N[C@@H](CC(C)C)C(=O)N[C@@H](Cc1ccc(O)cc1)C(=O)CF", "note": "[zLLY-CH2F, Z-LLY-CH2F] (Cbz-Leu-Leu-Tyr-CH2F)", "values": [{"measurement": "total calpain activity reduced by", "setting": "[1]; daily i.p. injection, 0.75 mg/kg", "result": 50, "unit": "%"}, {"measurement": "dose at which the maximum amount of calpain activity inhibition was achieved", "setting": "[1]; i.p., 0-1.25 mg/kg tested", "result": 0.75, "unit": "mg/kg"}, {"measurement": "weight recovery after each administration of DSS", "setting": "[2]; 0.75 mg/kg i.p. from day 8, vs vehicle control", "result": "significant increase"}, {"measurement": "average number of tumors/mouse", "setting": "[2]; day 63", "result": 2, "unit": "tumors/mouse"}, {"measurement": "hemoglobin in cecums by ELISA (bloody diarrhea)", "setting": "[2]; day 63, 0.75 mg/kg i.p., vs vehicle control", "result": "significantly lower"}, {"measurement": "total tumor volume reduced by", "setting": "[2]; day 63, i.p. 5 days on/2 days off from day 8, vs vehicle control", "result": 70, "unit": "%"}, {"measurement": "CAC pathology (blinded 4-point histological score)", "setting": "[2]", "result": "significantly lower"}, {"measurement": "total tumor volume (in words)", "setting": "[2]", "result": "significantly lower"}, {"measurement": "CAC pathology (blinded 4-point histological score)", "setting": "[2]; listed as calpain-2 inhibitor", "result": "significantly alleviated"}, {"measurement": "total tumor volume (in words)", "setting": "[2]; listed as calpain-2 inhibitor", "result": "significant reduction"}, {"measurement": "total tumor volume (in words)", "setting": "[2]; listed as m-calpain inhibitor", "result": "very significant tumor reduction"}, {"measurement": "colitis pathology and inflammatory infiltration (histology)", "setting": "[2]; day 63 colon, vs vehicle control", "result": "significant decrease"}, {"measurement": "IκB degradation", "setting": "[3]", "result": "reduced"}, {"measurement": "NFκB nuclear localization", "setting": "[3]", "result": "reduced"}, {"measurement": "inhibition of μ-calpain", "setting": "μ-calpain", "result": "not known to inhibit"}]}]}
